In brackets after ≈: the same amount, converted by molar mass.

This experiment relates to Mycobacterium tuberculosis. Description: In vitro anti-mycobacterial activity against Mycobacterium tuberculosis H37Rv. The format is functional.

One may read the MIC as the lowest concentration that inhibits growth of the organism. Lower therefore signals inhibition by little substance. `NNC(=O)c1ccncc1` [ISONIAZID] gave an MIC of 0.025 µg/mL (≈ 0.182 µM).

In turn, `CO[C@H]1/C=C/O[C@@]2(C)Oc3c(C)c(O)c4c(O)c(c(/C=N/N5CCN(C)CC5)c(O)c4c3C2=O)NC(=O)/C(C)=C\C=C\[C@H](C)[C@H](O)[C@@H](C)[C@@H](O)[C@@H](C)[C@H](OC(C)=O)[C@@H]1C` [RIFAMPIN] returned an MIC of 0.06 µg/mL (≈ 0.0729 µM).

(Values after ChEMBL document CHEMBL1134158, “Antimycobacterial in vitro activity of cobalt(II) isonicotinoylhydrazone complexes. Part 10” (2001).)
